The source of these data is patent US20110212913A1, “THERAPEUTIC COMPOSITIONS COMPRISING PHENOLIC ACIDS FOR TREATING CONDITIONS RELATED TO INAPPROPRIATE PLATELET AGGREGATION” (PROVEXIS NATURAL PRODUCTS LIMITED, priority 2008, published 2011).

What all share (assay type): cell-based, human
Assay [1] deals with platelet aggregation in platelet-rich plasma, agonist ADP. Briefly: ADP-induced platelet aggregation in platelet-rich plasma (aggregometer). Conditions: ADP 10 μmol/L; for IC50: Homo sapiens, Platelet. The procedure: (§1) The experimental protocol described below was devised to determine the IC50 values of compounds isolated as described in 1.1.3. Crude bioassays to evaluate inhibition of platelet aggregation in vitro were performed on some crude extracts (data not shown) to help select fine fractions/compounds identified by HPLC for functional activity. This approach was considered necessary to avoid the need to assay each and ever compound (the would be thousands) in the fruit extracts.
(§2) An IC50 value represents the amount of a compound, in mg, required to inhibit by 50% the platelet aggregation induced under standardised conditions in 1 mL platelet-rich plasma, in comparison with control samples.
(§3) Blood for in vitro studies was collected from drug-free, healthy human volunteers, both male and female, aged 18-60 years, with normal platelet function. Subjects declared that they had not consumed drugs or supplements known to affect platelet function for a minimum of 10 days before providing a blood sample. Blood was collected after single venepuncture to an antecubital vein through siliconized needles into plastic citrated blood collection tubes (Sarstedt Monovettes, final concentration sodium citrate, 13 mmol/L). All blood was maintained at 37° C. from the time of blood sampling.
(§4) Platelet-rich plasma (PRP) was obtained by centrifugation of citrated blood for 15 minutes at 200×g, and was adjusted with platelet-poor plasma to a standard platelet number of 320±20×10^9/L prior to use. PRP was used for platelet function measurements within two hours.
(§5) The following agonists were used for platelet function measurements. Adenosine diphosphate (ADP), final concentration 10 μmol/L; collagen, final concentration 5 mg/L; arachidonic acid, final concentration […] (all from Helena Biosciences, Sunderland, UK); thrombin receptor-activating peptide (TRAP), final concentration […] (Sigma-Aldrich, Poole, UK). Agonists were prepared from stock solutions immediately before use, diluting into warmed physiological saline (0.9% NaCI).
(§6) Individual platelet inhibitors were prepared at a concentration of between 500 g/L and 100 g/L in either physiological saline, ultra-pure methanol or ultra-pure DMSO (Sigma-Aldrich, Poole, UK) and stored frozen until required. Stock solutions were then diluted with physiological saline immediately prior to use.
(§7) 450 μL PRP was incubated with 50 μL diluted inhibitor solution at 37° C. for 10 minutes, in low-retention epindorrfs. Inhibitor solutions were diluted such that the final concentration of methanol or DMSO in the PRP sample never exceeded 2%. Suitable control samples, containing 50 μL physiological saline matched for methanol or DMSO content as appropriate, were incubated simultaneously. For each inhibitor compound, 5 incubation concentrations were used; final concentrations of 0.05 mg/mL, 0.10 mg/mL, 1.00 mg/mL, 5.00 mg/mL and 10 mg/mL were used as standard.
(§8) After incubation with platelet inhibitors, PRP samples were transferred to glass cuvettes and the extent of aggregation induced by either ADP, collagen, TRAP or arachidonic acid was monitored over 10 minutes on a platelet aggregometer (PACKS 4, Helena Biosciences, Sunderland, UK). A control sample was run with each sample set. From the aggregation curves generated, the area under the curve was calculated for each PRP sample, and the inhibition of aggregation achieved at each inhibitor concentration was calculated by comparing the area under the curve for these PRP samples with that of the control sample. The inhibition of aggregation was expressed as % inhibition, compared to control, and from the 6 data points obtained per inhibitor compound, a dose-response curve was constructed. This curve was then used to predict the IC50 value for that inhibitor compound, as shown in 1.2, Results, and FIG. 1.
(§9) For each blood sample obtained, 6-point dose-response curves for 2 different inhibitory compounds could be generated. […]

For assay [2], the system named is platelet aggregation in platelet-rich plasma, agonist collagen. Briefly: Collagen-induced platelet aggregation in platelet-rich plasma (aggregometer). Conditions: collagen 5 mg/L; for IC50: Homo sapiens, Platelet. The method, then: as §1, §2, §3, §4, §5, §6, §7, §8, §9
Assay [3] relates to platelet aggregation in platelet-rich plasma, agonist thrombin receptor-activating peptide (TRAP). Briefly: TRAP-induced platelet aggregation in platelet-rich plasma (aggregometer). The settings on record: TRAP 25 nmol/L; for IC50: Homo sapiens, Platelet. The procedure: as §1, §2, §3, §4, §5, §6, §7, §8, §9
The test system of assay [4] is platelet aggregation in platelet-rich plasma, agonist arachidonic acid. Briefly: Arachidonic acid-induced platelet aggregation in platelet-rich plasma (aggregometer). Conditions: arachidonic acid 500 U/L; for IC50: Homo sapiens, Platelet. The procedure: as §1, §2, §3, §4, §5, §6, §7, §8, §9
Where [5] appears, read: Table 3, mg needed for 50% inhibition in 1 mL PRP, compounds isolated from tomato extract.
Where [6] appears, read: Table 4, compounds from sources other than tomatoes, mg per 1 mL PRP.

In brackets after ≈: the same amount, converted by molar mass.

In the case of `Nc1ncnc2c1ncn2[C@@H]1O[C@H](CO)[C@@H](O)[C@H]1O` [Compound 2, Adenosine], the IC50 is 0.4 mg/mL (≈ 1.5 mM) in assay [1] (setting [5]), 0.82 mg/mL (≈ 3.07 mM) in assay [2] (setting [5]) and above 50 mg/mL in assay [3] (setting [5]).
As for `O=c1ccn([C@@H]2O[C@H](CO)[C@@H](O)[C@H]2O)c(=O)[nH]1` [Compound 3, Uridine], the 50% inhibitory concentration (IC50) in assay [3] (setting [5]) is above 50 mg/mL.
`Nc1nc2c(ncn2[C@@H]2O[C@H](CO)[C@@H](O)[C@H]2O)c(=O)[nH]1` [Compound 4, Guanosine]: the 50% inhibitory concentration (IC50) in assay [1] (setting [5]) stood at 0.25 mg/mL (≈ 0.883 mM); in assay [2] (setting [5]), 0.53 mg/mL (≈ 1.87 mM); in assay [4] (setting [5]), 910 µg/mL (≈ 3.21 mM).
With `Nc1ncnc2c1ncn2[C@@H]1O[C@H](CO)[C@@H](OP(=O)(O)O)[C@H]1O` [Compound 5, Adenosine 3′-monophospate], in assay [1] (setting [5]), the “IC50 ADP” value is 0.12 mg. The “IC50 Collagen” value in assay [2] (setting [5]) was 0.28 mg. Also, in assay [3] (setting [5]), the “IC50 TRAP” value is reported as 24.51 mg. Moreover, the “IC50 AA” value in assay [4] (setting [5]) worked out at 2.41 mg.
On the same counts, the results for `Nc1ncnc2c1ncn2[C@@H]1O[C@H](COP(=O)(O)O)[C@@H](O)[C@H]1O` [Compound 6, Adenosine 5′-monophospate] are 0.12 mg, 0.28 mg, 24.51 mg and 2.41 mg.
Consider `O=C(/C=C/c1ccc(O)c(O)c1)O[C@@H]1C[C@](O)(C(=O)O)C[C@@H](O)[C@H]1O` [Compound 14, Chlorogenic acid], for which the concentration for half-maximal inhibition (IC50) in assay [1] (setting [5]) was 10.1 mg/mL (≈ 28.4 mM); in assay [2] (setting [5]) it was 10.1 mg/mL (≈ 28.5 mM); in assay [3] (setting [5]) it was 1.1 mg/mL (≈ 3.1 mM); in assay [4] (setting [5]), 770 µg/mL (≈ 2.17 mM).
Take `O=C(O)c1ccccc1` [Compound 20, Benzoic acid]: the half-maximal inhibitory concentration (IC50) is 25.1 mg/mL (≈ 206 mM) in assay [1] (setting [5]), 17.7 mg/mL (≈ 145 mM) in assay [2] (setting [5]), 18.2 mg/mL (≈ 149 mM) in assay [3] (setting [5]) and 15400 µg/mL (≈ 127 mM) in assay [4] (setting [5]).
Take `O=C(O)C=Cc1ccccc1` [Compound 22, Cinnamic acid]: the IC50 in assay [1] (setting [6]) is 26.1 mg/mL (≈ 176 mM); in assay [2] (setting [6]), 8.76 mg/mL (≈ 59.1 mM); in assay [3] (setting [6]) it was 18.2 mg/mL (≈ 123 mM); in assay [4] (setting [5]), 220 µg/mL (≈ 1.48 mM); in assay [4] (setting [6]) it was 16100 µg/mL (≈ 109 mM).
Compound `C[C@@H]1O[C@@H](OC[C@H]2O[C@@H](Oc3c(-c4ccc(O)c(O)c4)oc4cc(O)cc(O)c4c3=O)[C@H](O)[C@@H](O)[C@@H]2O)[C@H](O)[C@H](O)[C@H]1O` [Compound 27, Rutin] registered a half-maximal inhibitory concentration (IC50) in assay [4] (setting [5]) of 410 µg/mL (≈ 0.672 mM).
For the compound `O=c1c(O)c(-c2ccc(O)c(O)c2)oc2cc(O)cc(O)c12` [Compound 30, Quercetin], the concentration for half-maximal inhibition (IC50) in assay [1] (setting [5]) and in assay [2] (setting [5]) was above 50 mg/mL throughout.
For the compound `O=c1c(O)c(-c2ccc(O)cc2)oc2cc(O)cc(O)c12` [Compound 31, Kaempferol], the IC50 in assay [1] (setting [5]) and in assay [2] (setting [5]) was above 50 mg/mL in each case.
In the case of `O=C1C[C@@H](c2ccc(O)cc2)Oc2cc(O)cc(O)c21` [Compound 32, Naringenin], the concentration for half-maximal inhibition (IC50) in assay [1] (setting [5]) and in assay [2] (setting [5]) was above 50 mg/mL in each case.
Turning to `O=C(O)c1cc(O)c(O)c(O)c1` [Gallic acid], the IC50 turned out to be 20.2 mg/mL (≈ 119 mM) in assay [1] (setting [6]), 14.4 mg/mL (≈ 84.5 mM) in assay [2] (setting [6]), 18.9 mg/mL (≈ 111 mM) in assay [3] (setting [6]) and 14400 µg/mL (≈ 84.9 mM) in assay [4] (setting [6]).
In the case of `Nc1nc2c(ncn2[C@@H]2O[C@H](COP(=O)(O)O)[C@@H](O)[C@H]2O)c(=O)[nH]1` [Guanosine 5′-monophosphate], the IC50 in assay [1] (setting [6]) came to 0.1 mg/mL (≈ 0.275 mM); in assay [2] (setting [6]), 0.31 mg/mL (≈ 0.853 mM); in assay [3] (setting [6]), 20.1 mg/mL (≈ 55.4 mM); in assay [4] (setting [6]), 360 µg/mL (≈ 0.991 mM).
For `OC[C@H]1O[C@@H](n2cnc3c(O)ncnc32)[C@H](O)[C@@H]1O` [Inosine], the 50% inhibitory concentration (IC50) in assay [1] (setting [6]) is 3.5 mg/mL (≈ 13 mM); in assay [2] (setting [6]), 9.3 mg/mL (≈ 34.7 mM); in assay [3] (setting [6]), above 50 mg/mL.
Turning to `O=c1cc(-c2ccc(O)c(O)c2)oc2cc(O)cc(O)c12` [Luteolin], the IC50 in assay [1] (setting [6]) was above 50 mg/mL; in assay [2] (setting [6]), above 50 mg/mL; in assay [3] (setting [6]), 26.2 mg/mL (≈ 91.5 mM); in assay [4] (setting [6]), 5180 µg/mL (≈ 18.1 mM).
Turning to `O=c1c(O)c(-c2cc(O)c(O)c(O)c2)oc2cc(O)cc(O)c12` [Myricetin], the IC50 in assay [1] (setting [6]) amounted to 22.1 mg/mL (≈ 69.6 mM); in assay [2] (setting [6]) it was 24.6 mg/mL (≈ 77.3 mM); in assay [3] (setting [6]) it was 12.9 mg/mL (≈ 40.6 mM); in assay [4] (setting [6]), 220 µg/mL (≈ 0.691 mM).
Consider `O=C(O)c1ccc(O)c(O)c1` [Protocatechuic acid], for which the IC50 was 30.2 mg/mL (≈ 196 mM) in assay [1] (setting [6]), 23.7 mg/mL (≈ 154 mM) in assay [2] (setting [6]), 30.8 mg/mL (≈ 200 mM) in assay [3] (setting [6]) and 25600 µg/mL (≈ 166 mM) in assay [4] (setting [6]).
In the case of `C[C@@H]1O[C@@H](Oc2c(-c3ccc(O)c(O)c3)oc3cc(O)cc(O)c3c2=O)[C@H](O)[C@H](O)[C@H]1O` [Quercitrin], the IC50 in assay [1] (setting [6]) is above 50 mg/mL; in assay [2] (setting [6]), above 50 mg/mL; in assay [3] (setting [6]) it was 16 mg/mL (≈ 35.6 mM); in assay [4] (setting [6]), 12000 µg/mL (≈ 26.8 mM).
With `COc1cc(/C=C/C(=O)O)cc(OC)c1O` [Sinapic acid], the IC50 in assay [1] (setting [6]) came to 26.1 mg/mL (≈ 116 mM); in assay [2] (setting [6]) it was 24.9 mg/mL (≈ 111 mM); in assay [3] (setting [6]), 30.4 mg/mL (≈ 135 mM); in assay [4] (setting [6]), 24800 µg/mL (≈ 110 mM).
On the same counts, the results for `COc1cc(C(=O)O)cc(OC)c1O` [Syringic acid] are 37.2 mg/mL (≈ 188 mM), 30.8 mg/mL (≈ 155 mM), 28.3 mg/mL (≈ 143 mM) and 22500 µg/mL (≈ 113 mM).
As for `O=C(O)/C=C/c1ccccc1O` [o-Coumaric acid], the concentration for half-maximal inhibition (IC50) was found to be 32.2 mg/mL (≈ 196 mM) in assay [1] (setting [6]), 28.9 mg/mL (≈ 176 mM) in assay [2] (setting [6]), 17.4 mg/mL (≈ 106 mM) in assay [3] (setting [6]) and 9480 µg/mL (≈ 57.7 mM) in assay [4] (setting [6]).
In the case of Naringin [Compound 26], the “IC50 ADP” value in assay [1] (setting [5]) stood at 28.1 mg. Further, the “IC50 Collagen” value in assay [2] (setting [5]) came to 29.55 mg. Moreover, the “IC50 TRAP” value in assay [3] (setting [5]) came out at 9.13 mg. In addition, in assay [4] (setting [5]), the “IC50 AA” value was found to be 0.31 mg.
On the same counts, the results for Quercetin-3-O-glycoside [Compound 23] are 25.18 mg, 28.43 mg, 12.06 mg and 0.19 mg.

As usually defined, the IC50 is the concentration that inhibits the measured activity by half. The low end stands for inhibition by little substance, the high end for a need for much substance.
